System: bacterial infections (bone, wound, respiratory and other)
Test: PET scan imaging of human subjects after intravenous injection of the 18F-labeled fluoroquinolone
Format: in vivo
Details: 700 to 1400 MBq i.v.; PET scan 30 to 60 minutes after injection; patients with various bacterial infections vs healthy subjects
Description: [^18F]ciprofloxacin administration to human subjects suspected of having bacterial infection and PET monitoring of the localization of [^18F] in the subjects. Healthy subjects are injected intravenously with 700 to 1400 MBq of [^18F]ciprofloxacin. In order to correct for the attenuation of photons by tissue, a transmission scan with two 400-MBq pin sources or from CT data (if the scan is acquired on a PET/CT scanner) is recorded after obtaining the emission scan. Thirty to sixty minutes after injection of [^18F]ciprofloxacin, data are obtained by PET scan of the regions of concern (such as the whole body or a specific area such as the hip or chest, depending on the clinical need) . Each subject is positioned supine on the imaging bed. The data on healthy subjects establish the appearance of the distribution of [^18F]ciprofloxacin in uninfected patients.
The same protocol is used on patients diagnosed by other criteria with bacterial bone infections, bacterial wound infections, bacterial respiratory infections, and other bacterial infections.
Healthy subjects and subjects confirmed by conventional diagnostic methods to have bacterial infections of various types are injected intravenously with 700 to 1400 MBq of [^18F]fleroxacin. After 30 to 60 minutes, the subjects are subjected to PET scan imaging as described in Example 1.

Molecule | PET scan results of patients with bacterial infections versus healthy volunteers
O=C(O)c1cn(C2CC2)c2cc(N3CCNCC3)c(F)cc2c1=O [[^18F]ciprofloxacin] | distinguishable from the PET scan results of healthy volunteers
[^18F]fleroxacin | distinguishable from the PET scan results of healthy volunteers

— patent publication US20060110787A1, “Use of fluorine-18-labeled fluoroquinolone antibiotics for diagnosing and monitoring bacterial infection” (The Board Trustees of the University of Arkansas, priority 2004, published 2006)
